Assay: Bioaccumulation log Pow (slow stirring method)
Excerpt: As mentioned before. The environmental acceptability of these esterquat surfactant compounds is of essential importance for emulsion breaking operations in oil production processes.

Dioleic acid triethanolamine esterquat [Di-oleic acid triethanolamine esterquat]
bioaccumulation: log Pow: 0.73

From patent publication US20180291285A1 (Clariant International, Ltd., priority 2015, published 2018)
